The target in one data set is Histone deacetylase. In words: Inhibition of HDAC derived from human HeLa cell nucleus. It counts as subcellular.
Data set [1] deals with Poly [ADP-ribose] polymerase 1 (Homo sapiens, UniProt P09874). As to the kind of experiment: Inhibition of PARP-1 derived from human HeLa cell nucleus. The class given is subcellular.
The test system of data set [2] is MDA-MB-231. As to the kind of experiment: Antiproliferative activity against human MDA-MB-231 cells assessed as reduction in cell viability measured after 7 days. It counts as functional, cell-based. The settings on record: MDA-MB-231, 168 h.
Data set [3] deals with ES-2. In words: Antiproliferative activity against human ES2 cells assessed as reduction in cell viability measured after 7 days. It counts as functional, cell-based. The conditions noted are these: ES-2, 168 h.
The test system of the next data set is A549. In words: Antiproliferative activity against human A549 cells assessed as reduction in cell viability. The class given is functional, cell-based.
Another data set has as its system CAPAN-1. As to the kind of experiment: Antiproliferative activity against human CAPAN-1 cells assessed as reduction in cell viability. It counts as functional, cell-based.
The next data set has as its system DU-145. As to the kind of experiment: Antiproliferative activity against human DU-145 cells assessed as reduction in cell viability. The class given is functional, cell-based.
Another data set has as its system HCC1937. As to the kind of experiment: Antiproliferative activity against human HCC1937 cells assessed as reduction in cell viability. It counts as functional, cell-based.
Data set [4] deals with T1, Protein deacetylase HDAC6 (Homo sapiens, UniProt Q9UBN7).
T1 sequence (Q9UBN7 whole entry): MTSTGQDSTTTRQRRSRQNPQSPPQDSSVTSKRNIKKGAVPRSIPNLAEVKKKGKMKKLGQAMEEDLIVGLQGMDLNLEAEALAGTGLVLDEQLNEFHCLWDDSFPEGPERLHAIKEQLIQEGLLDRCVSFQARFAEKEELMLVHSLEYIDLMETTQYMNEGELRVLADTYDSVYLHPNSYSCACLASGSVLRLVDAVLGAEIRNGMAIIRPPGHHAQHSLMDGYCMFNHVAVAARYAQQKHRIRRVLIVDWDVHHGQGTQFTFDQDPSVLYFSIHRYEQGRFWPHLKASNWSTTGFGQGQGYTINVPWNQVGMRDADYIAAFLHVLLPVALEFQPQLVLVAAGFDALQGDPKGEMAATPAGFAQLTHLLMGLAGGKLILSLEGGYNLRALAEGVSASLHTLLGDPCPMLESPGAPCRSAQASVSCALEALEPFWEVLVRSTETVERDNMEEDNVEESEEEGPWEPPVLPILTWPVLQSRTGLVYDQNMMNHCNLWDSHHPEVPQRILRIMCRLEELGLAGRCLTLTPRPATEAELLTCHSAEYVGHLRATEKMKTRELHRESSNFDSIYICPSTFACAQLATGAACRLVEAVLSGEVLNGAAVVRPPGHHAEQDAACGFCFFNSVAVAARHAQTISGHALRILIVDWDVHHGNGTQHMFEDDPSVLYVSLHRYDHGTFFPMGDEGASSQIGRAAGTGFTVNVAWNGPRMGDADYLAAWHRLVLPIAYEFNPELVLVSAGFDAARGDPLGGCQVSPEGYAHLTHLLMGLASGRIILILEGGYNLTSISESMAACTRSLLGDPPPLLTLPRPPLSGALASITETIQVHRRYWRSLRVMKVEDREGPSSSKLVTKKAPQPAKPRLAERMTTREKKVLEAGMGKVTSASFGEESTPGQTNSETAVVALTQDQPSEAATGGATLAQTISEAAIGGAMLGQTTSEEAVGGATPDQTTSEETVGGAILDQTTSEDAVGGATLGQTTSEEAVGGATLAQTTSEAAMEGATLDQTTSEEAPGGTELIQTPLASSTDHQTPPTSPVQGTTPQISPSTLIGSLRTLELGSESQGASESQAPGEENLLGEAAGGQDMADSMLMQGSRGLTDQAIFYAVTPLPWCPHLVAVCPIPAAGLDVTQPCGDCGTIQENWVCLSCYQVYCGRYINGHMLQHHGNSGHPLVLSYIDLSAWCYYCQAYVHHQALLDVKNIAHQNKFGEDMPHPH
In words: Inhibition of HDAC6 (unknown origin).

For data set [5], the target named is Vascular endothelial growth factor receptor 2 (Homo sapiens, UniProt P35968). As to the kind of experiment: Inhibition of VEGFR2 (unknown origin).
Chain of Vascular endothelial growth factor receptor 2 (P35968 whole entry): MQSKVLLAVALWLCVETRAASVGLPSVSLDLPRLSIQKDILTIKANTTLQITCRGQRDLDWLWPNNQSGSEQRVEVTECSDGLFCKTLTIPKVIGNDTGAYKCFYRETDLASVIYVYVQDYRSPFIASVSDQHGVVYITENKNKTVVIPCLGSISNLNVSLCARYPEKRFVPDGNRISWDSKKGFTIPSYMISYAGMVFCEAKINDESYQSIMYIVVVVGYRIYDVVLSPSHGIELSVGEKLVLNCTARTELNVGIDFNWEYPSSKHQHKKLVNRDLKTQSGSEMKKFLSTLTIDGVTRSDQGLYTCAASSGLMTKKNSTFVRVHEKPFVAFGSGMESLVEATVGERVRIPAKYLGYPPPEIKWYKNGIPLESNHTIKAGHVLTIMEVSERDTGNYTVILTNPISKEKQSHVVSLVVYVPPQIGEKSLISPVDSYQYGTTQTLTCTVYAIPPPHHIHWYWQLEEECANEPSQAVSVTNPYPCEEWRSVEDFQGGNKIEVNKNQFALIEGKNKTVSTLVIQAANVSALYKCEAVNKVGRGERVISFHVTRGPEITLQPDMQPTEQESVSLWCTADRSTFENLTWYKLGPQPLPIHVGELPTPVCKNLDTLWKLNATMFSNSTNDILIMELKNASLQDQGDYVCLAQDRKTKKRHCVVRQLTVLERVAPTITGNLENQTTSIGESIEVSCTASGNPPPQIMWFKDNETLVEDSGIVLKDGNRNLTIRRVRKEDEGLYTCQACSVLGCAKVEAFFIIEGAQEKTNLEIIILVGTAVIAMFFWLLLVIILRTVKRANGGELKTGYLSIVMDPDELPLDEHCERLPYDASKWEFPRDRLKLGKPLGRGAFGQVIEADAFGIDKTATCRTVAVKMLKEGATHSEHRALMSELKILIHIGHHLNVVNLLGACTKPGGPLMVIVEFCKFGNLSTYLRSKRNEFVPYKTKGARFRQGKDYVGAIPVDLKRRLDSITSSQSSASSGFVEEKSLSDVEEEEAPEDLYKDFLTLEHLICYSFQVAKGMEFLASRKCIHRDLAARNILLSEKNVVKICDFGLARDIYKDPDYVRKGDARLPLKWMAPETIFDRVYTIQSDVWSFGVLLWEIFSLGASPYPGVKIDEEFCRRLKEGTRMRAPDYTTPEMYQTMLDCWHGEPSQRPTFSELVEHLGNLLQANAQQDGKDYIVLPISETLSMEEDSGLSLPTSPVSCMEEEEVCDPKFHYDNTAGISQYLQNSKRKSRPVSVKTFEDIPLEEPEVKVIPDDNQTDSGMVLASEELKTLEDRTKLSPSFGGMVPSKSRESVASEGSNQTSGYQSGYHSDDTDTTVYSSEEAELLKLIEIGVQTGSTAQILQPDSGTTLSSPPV
The next data set relates to HUVEC. As to the kind of experiment: Antiangiogenesis activity in HUVEC cells assessed as damage in vascular tube structure at 5 to 10 uM by tube formation assay. It counts as functional, cell-based. The settings on record: Homo sapiens, dose 5-10 µM.
The nature of data set [6]: Cytotoxicity against human EA.hy 926 assessed as inhibition of cell growth. It counts as toxicity, cell-based. The conditions noted are these: EA.hy 926 cells.
The subject of data set [7] is ES-2. In words: Upregulation of Ac-tubulin expression in human ES2 cells at 0.3 uM by Western blot analysis. The class given is functional, cell-based. (In general: Immunoblotting shows a protein as a band on a membrane.)
Data set [8] relates to ES-2. In words: Upregulation of Ac-HH3 expression in human ES2 cells at 10 uM by Western blot analysis. It counts as functional, cell-based.
Another data set concerns the target T2, Histone deacetylase 8 (Homo sapiens, UniProt Q9BY41).
T2 sequence (Q9BY41 whole entry): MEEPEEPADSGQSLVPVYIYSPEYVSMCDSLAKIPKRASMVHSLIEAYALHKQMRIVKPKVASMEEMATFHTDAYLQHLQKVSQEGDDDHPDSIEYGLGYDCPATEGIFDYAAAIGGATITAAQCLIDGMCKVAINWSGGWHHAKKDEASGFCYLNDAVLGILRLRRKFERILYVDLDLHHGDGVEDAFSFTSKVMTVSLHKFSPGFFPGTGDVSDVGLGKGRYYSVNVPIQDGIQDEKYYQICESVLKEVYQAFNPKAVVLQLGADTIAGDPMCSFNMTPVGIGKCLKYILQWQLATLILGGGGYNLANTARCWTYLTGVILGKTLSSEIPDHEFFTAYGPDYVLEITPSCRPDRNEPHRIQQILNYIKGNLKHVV
As to the kind of experiment: Inhibition of HDAC8 (unknown origin).

For the next data set, the target named is Histone deacetylase 2 (Homo sapiens, UniProt Q92769). As to the kind of experiment: Inhibition of HDAC2 (unknown origin).
Chain of Histone deacetylase 2 (Q92769 whole entry): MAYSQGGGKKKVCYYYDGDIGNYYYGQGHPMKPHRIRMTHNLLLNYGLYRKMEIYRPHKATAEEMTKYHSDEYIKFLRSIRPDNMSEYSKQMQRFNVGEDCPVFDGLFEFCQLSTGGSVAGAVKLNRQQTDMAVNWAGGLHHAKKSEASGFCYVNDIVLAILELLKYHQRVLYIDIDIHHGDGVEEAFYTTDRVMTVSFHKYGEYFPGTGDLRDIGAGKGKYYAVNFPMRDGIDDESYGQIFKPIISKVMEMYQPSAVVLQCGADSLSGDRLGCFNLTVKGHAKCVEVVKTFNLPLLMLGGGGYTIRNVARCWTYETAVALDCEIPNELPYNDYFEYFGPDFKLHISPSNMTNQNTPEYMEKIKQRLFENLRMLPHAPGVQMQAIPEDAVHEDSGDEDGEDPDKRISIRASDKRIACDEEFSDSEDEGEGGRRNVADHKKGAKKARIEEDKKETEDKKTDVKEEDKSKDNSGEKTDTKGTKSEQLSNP
A further data set addresses Histone deacetylase 4 (Homo sapiens, UniProt P56524). As to the kind of experiment: Inhibition of HDAC4 (unknown origin).
The test system of data set [9] is ES-2. As to the kind of experiment: Upregulation of Ac-HH4 expression in human ES2 cells at 10 uM by Western blot analysis. It counts as functional, cell-based.
The next data set deals with Histone deacetylase 3 (Homo sapiens, UniProt O15379). As to the kind of experiment: Inhibition of HDAC3 (unknown origin).
Chain of Histone deacetylase 3 (O15379 whole entry): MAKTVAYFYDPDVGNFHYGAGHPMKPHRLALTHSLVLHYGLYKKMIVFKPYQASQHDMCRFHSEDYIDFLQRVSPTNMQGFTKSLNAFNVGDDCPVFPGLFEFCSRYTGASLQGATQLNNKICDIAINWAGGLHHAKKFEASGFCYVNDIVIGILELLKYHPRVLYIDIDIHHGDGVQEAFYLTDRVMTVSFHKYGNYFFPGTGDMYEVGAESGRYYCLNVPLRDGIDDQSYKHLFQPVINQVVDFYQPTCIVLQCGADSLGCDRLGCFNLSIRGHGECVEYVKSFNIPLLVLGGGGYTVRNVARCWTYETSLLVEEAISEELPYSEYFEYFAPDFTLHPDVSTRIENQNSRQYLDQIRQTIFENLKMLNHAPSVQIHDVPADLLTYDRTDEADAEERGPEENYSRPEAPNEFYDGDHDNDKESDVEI
The subject of data set [10] is MDA-MB-231. In words: Inhibition of cell migration in human MDA-MB-231 cells at 3 to 10 uM measured upto 48 hrs by wound healing assay. The class given is functional, cell-based. The settings on record: dose 3-10 µM.
In a further data set the test system is MDA-MB-436. As to the kind of experiment: Induction of intracellular ROS generation in human MDA-MB-436 cells assessed as increase in ROS level by DCFH-DA staining based microscopic analysis. It counts as functional, cell-based. The conditions noted are these: dose 1.25-5 µM, DDE = dose-dependent effect.

Active and inactive are the calls of the source. The rule behind the calls is not given here.

Chain of Poly [ADP-ribose] polymerase 1 (P09874 whole entry): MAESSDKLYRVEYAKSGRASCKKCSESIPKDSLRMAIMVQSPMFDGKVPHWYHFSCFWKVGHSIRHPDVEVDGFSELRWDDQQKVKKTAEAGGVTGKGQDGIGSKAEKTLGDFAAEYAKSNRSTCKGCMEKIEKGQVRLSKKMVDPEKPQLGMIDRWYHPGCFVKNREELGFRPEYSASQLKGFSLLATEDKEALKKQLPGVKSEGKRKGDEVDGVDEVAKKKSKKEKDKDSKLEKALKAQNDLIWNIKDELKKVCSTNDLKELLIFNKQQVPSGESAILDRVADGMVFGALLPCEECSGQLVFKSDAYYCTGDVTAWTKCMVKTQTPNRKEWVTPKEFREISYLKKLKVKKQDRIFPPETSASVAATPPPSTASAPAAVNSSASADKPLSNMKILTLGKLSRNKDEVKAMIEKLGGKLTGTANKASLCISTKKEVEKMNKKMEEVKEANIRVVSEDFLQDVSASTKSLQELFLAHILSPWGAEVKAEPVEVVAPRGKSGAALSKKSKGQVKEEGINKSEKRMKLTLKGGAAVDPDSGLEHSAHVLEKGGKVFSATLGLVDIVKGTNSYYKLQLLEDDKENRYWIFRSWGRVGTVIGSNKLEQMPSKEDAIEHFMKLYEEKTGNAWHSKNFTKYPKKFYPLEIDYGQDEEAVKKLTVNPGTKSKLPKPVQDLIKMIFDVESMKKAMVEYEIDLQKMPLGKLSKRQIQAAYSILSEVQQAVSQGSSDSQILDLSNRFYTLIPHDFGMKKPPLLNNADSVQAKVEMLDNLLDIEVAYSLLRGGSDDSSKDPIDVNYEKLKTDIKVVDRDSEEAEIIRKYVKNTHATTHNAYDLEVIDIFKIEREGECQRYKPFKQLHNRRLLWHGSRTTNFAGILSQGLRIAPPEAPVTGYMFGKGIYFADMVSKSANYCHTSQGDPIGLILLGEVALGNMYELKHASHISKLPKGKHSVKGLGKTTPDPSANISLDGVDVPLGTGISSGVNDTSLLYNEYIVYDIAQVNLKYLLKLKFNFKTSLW
Chain of Histone deacetylase 4 (P56524 whole entry): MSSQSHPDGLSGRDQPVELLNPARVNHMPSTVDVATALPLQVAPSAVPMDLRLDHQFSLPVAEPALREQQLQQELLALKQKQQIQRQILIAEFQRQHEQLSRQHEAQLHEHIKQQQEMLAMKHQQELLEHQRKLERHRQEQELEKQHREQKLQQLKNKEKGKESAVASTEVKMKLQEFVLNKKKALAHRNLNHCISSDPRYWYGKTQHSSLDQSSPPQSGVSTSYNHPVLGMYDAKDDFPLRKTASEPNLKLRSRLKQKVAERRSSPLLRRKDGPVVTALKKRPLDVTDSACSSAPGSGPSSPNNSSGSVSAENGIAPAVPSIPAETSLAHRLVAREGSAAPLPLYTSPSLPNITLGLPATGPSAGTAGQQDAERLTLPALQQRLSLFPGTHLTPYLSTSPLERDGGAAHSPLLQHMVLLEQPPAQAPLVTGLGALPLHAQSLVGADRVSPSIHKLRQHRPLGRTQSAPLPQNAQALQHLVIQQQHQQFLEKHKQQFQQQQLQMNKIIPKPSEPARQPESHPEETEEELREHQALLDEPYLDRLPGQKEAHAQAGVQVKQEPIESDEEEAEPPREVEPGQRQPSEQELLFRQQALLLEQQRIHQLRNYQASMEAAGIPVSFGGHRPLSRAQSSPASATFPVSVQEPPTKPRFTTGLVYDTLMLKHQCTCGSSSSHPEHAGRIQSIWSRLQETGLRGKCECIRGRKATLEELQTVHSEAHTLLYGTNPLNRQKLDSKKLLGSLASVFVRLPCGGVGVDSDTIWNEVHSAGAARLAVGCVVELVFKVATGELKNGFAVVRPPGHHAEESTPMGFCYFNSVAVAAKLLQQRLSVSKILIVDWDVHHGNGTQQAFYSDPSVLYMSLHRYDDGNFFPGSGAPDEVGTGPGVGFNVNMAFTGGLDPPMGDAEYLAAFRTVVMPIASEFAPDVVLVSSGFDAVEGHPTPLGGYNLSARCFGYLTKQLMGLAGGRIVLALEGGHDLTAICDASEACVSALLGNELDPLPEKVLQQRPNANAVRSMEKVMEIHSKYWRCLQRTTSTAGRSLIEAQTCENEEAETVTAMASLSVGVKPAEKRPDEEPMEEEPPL

The IC50 is the concentration that inhibits the measured activity by half. As for `NC(=O)c1cccc2[nH]c(-c3ccc(OCCCCCC(=O)NO)cc3)nc12`, the concentration for half-maximal inhibition (IC50) against Histone deacetylase was 5.5 µM; in data set [1], 0.0202 µM; in the data set with MDA-MB-231 [2], > 30 µM; with ES-2 [3], > 30 µM.
With `NC(=O)c1ccc(COc2ccc(-c3nc4c(C(N)=O)cccc4[nH]3)cc2)cc1`, the IC50 on Histone deacetylase turned out to be 7.7 µM; in the data set with A549, 16.4 µM; with CAPAN-1 it was 26.4 µM; in the data set with DU-145, 8.56 µM; in [1], 0.031 µM; in the data set on MDA-MB-231 [2], 1.08 µM. For the same molecule, the half-maximal inhibitory concentration (IC50) in the data set on HCC1937 stood at 4.05 µM; in the data set on ES-2 [3] it was 1.16 µM.
For the molecule `NC(=O)c1ccc(COc2ccc(-n3cc4cccc(C(N)=O)c4n3)cc2)cc1`, the half-maximal inhibitory concentration (IC50) in [4] was 0.54 µM; in data set [5], 0.00592 µM; at Histone deacetylase, 10.8 µM; in data set [6], 5.41 µM; in the data set on A549, 5.67 µM; against Histone deacetylase 8, > 100 µM. The IC50 with CAPAN-1 is 4.53 µM; against Histone deacetylase 2 it was 42.1 µM; in the data set with DU-145 it was 3.38 µM; against Histone deacetylase 4, > 100 µM; in data set [1], 0.0689 µM; on Histone deacetylase 3, 7.22 µM. Besides, the IC50 with MDA-MB-231 [2] amounted to 0.35 µM; in the data set on HCC1937 it was 2.85 µM; in the data set on ES-2 [3] it was 1.16 µM. Besides, the outcome in the data set on HUVEC, with ES-2 [7], with ES-2 [8] and with ES-2 [9] was Active. Moreover, the inhibition result in the data set with MDA-MB-231 [10] was “Active”. In the data set on MDA-MB-436, the Activity entry is “Dde”.
As to `NC(=O)c1cccc2cn(-c3ccc(OCCCCCC(=O)NO)cc3)nc12`, the IC50 at Histone deacetylase is > 30 µM; in data set [1], 0.285 µM; with MDA-MB-231 [2], 4.28 µM; with ES-2 [3], 1.68 µM.
With `NC(=O)/C=C/c1ccc(COc2ccc(-c3nc4c(C(N)=O)cccc4[nH]3)cc2)cc1`, the IC50 at Histone deacetylase amounted to 7.9 µM; with A549 it was 7.72 µM; in the data set with CAPAN-1 it was 5.63 µM; with DU-145 it was 4.7 µM; in data set [1], 0.0274 µM; with MDA-MB-231 [2], 0.69 µM. For the same molecule, the figures for the 50% inhibitory concentration (IC50) in the data set with HCC1937 and in the data set on ES-2 [3] were 2.88 µM and 1.37 µM, respectively.
Regarding `O=C(c1cc(Cc2n[nH]c(=O)c3ccccc23)ccc1F)N1CCN(C(=O)C2CC2)CC1` [OLAPARIB], the IC50 in the data set with A549 was 5.89 µM; with CAPAN-1, 1.67 µM; in the data set with DU-145, 11.4 µM; in the data set on MDA-MB-231 [2] it was 0.69 µM; in the data set with HCC1937, > 30 µM; in the data set with ES-2 [3] it was 2.05 µM.
On to `NC(=O)c1cccc2cn(-c3ccc(OCCCCCCCC(=O)NO)cc3)nc12`, for which the IC50 against Histone deacetylase is 13.7 µM; in data set [1], 0.245 µM; in the data set with MDA-MB-231 [2] it was > 30 µM; in the data set with ES-2 [3], 6.15 µM.
On to `NC(=O)c1cccc2[nH]c(-c3ccc(OCCCCCCCC(=O)NO)cc3)nc12`, for which the half-inhibitory concentration (IC50) against Histone deacetylase was > 30 µM; in [1], 0.0475 µM; in the data set with MDA-MB-231 [2] it was > 30 µM; with ES-2 [3], > 30 µM.
Take `NC(=O)c1cccc2[nH]c(-c3ccc(OCCCCC(=O)NO)cc3)nc12`: the IC50 against Histone deacetylase is > 30 µM; in data set [1], 0.0121 µM; in the data set on MDA-MB-231 [2], > 30 µM; in the data set with ES-2 [3], > 30 µM.
For the molecule `NC(=O)c1cccc2cn(-c3ccc(OCCCC(=O)NO)cc3)nc12`, the IC50 against Histone deacetylase was > 30 µM; in data set [1], 0.102 µM; in the data set on MDA-MB-231 [2], 9.93 µM; with ES-2 [3], 12.7 µM.
Take `NC(=O)/C=C/c1ccc(COc2ccc(-n3cc4cccc(C(N)=O)c4n3)cc2)cc1`: the IC50 is 0.51 µM in [4]; 0.0034 µM in data set [5]; 10.6 µM on Histone deacetylase; 26 µM in [6]; 6.98 µM in the data set with A549; > 100 µM against Histone deacetylase 8. Moreover, the IC50 in the data set on CAPAN-1 is 6.55 µM; on Histone deacetylase 2 it was 31 µM; in the data set on DU-145 it was 3.59 µM; against Histone deacetylase 4 it was > 100 µM; in data set [1], 0.227 µM; against Histone deacetylase 3, 2.19 µM. For the same molecule, the IC50 was 0.34 µM in the data set with MDA-MB-231 [2], 1.92 µM in the data set on HCC1937 and 0.42 µM in the data set with ES-2 [3].
Turning to `NC(=O)c1cccc2[nH]c(-c3ccc(OCCCC(=O)NO)cc3)nc12`, the IC50 on Histone deacetylase was > 30 µM; in data set [1], 0.0142 µM; in the data set on MDA-MB-231 [2], > 30 µM; with ES-2 [3], > 30 µM.
As for `NC(=O)c1cccc2cn(-c3ccc(OCCCCC(=O)NO)cc3)nc12`, the IC50 against Histone deacetylase is > 30 µM; in [1], 0.102 µM; in the data set on MDA-MB-231 [2] it was 2.41 µM; in the data set with ES-2 [3], 3.64 µM.
With `NC(=O)c1cccc2[nH]c(-c3ccc(OCCCCCCC(=O)NO)cc3)nc12`, the IC50 at Histone deacetylase was 7 µM; in data set [1], 0.038 µM; with MDA-MB-231 [2], > 30 µM; with ES-2 [3] it was > 30 µM.
On to `NC(=O)c1cccc2cn(-c3ccc(OCCCCCCC(=O)NO)cc3)nc12`, for which the IC50 against Histone deacetylase was > 30 µM; in [1], 0.128 µM; in the data set on MDA-MB-231 [2], > 30 µM; in the data set on ES-2 [3], 1.57 µM.

For the origin of these results see ChEMBL document CHEMBL5113426, “Design, synthesis and antitumor activity study of PARP-1/HDAC dual targeting inhibitors” (Bioorg Med Chem Lett, 2022).
